Experiments:
calf cornea = experiment: In vitro transport of substrate cassette across normoxic and hypoxic calf cornea; conditions: for apparent permeability (Papp) across hypoxic vs normoxic tissue (in words) / transport across hypoxic vs normoxic tissue (in words): calf cornea; for transport across hypoxic vs normoxic tissue (in words): cassette 100 μM
Description: (§1) Animals used in this study were those that were sacrificed as part of other experiments approved by the Institutional Animal Care Committee of the Colorado State University (Fort Collins) and University of Colorado Anschutz Medical campus. Hypoxic and normoxic calf eyes were obtained from the Department of Physiology, School of Veterinary Medicine, Colorado State University (Fort Collins, Colo.). Briefly, 1 day old male Holstein calves (n=4) were kept in hypobaric hypoxic chambers (PB=445 mm Hg) for 2 weeks. For control experiment, age matched calves (n=4) were kept at ambient altitude (PB=650 mm Hg) and normoxia for two weeks. Hypoxic and normoxic rat eyes were obtained from the Department of Medicine, University of Colorado Anschutz Medical campus (Aurora, Colo.). Sprague Dawley rats (n=4) were maintained in hypobaric hypoxic chambers (PB=380 mm Hg) for 6 weeks and age matched controls were kept at ambient pressure and normoxia.
(§2) In vitro transport studies across hypoxic and control calf cornea and sclera-choroid-RPE (SCRPE) were carried using cassette dosing approach. A cassette of drug transporter substrates, Gly-Sar (PEPT), valacylovir (ATB^0+), MPP^+ (OCT), and phenylacetic acid (MCT) at a concentration of 100 μM each in assay buffer was prepared. Briefly, the calf eyes were harvested immediately after euthanasia and transferred to the laboratory on ice. Upon arrival in the lab, the eyes were washed with assay buffer and cleaned from muscle and unwanted tissues. Anterior and posterior parts were separated by circumferential cut at the limbus. Vitreous was removed and the neural retina was separated from the choroid-RPE by filling the eye cup with assay buffer. The retina afloat in assay buffer was isolated and the eye cup was divided into two pieces (˜1.5×1.5 cm) of sclera-choroid-RPE. Isolated tissues were mounted on modified Ussing chambers (Navicyte, Sparks, Nev.) such that the episcleral side of SCRPE or epithelial side of cornea was facing the donor chamber and retinal side or endothelial side of the cornea was facing the receiver chamber. The chambers were filled with 1.5 ml of assay buffer at 37° C. with (donor side) or without (receiver side) the cocktail of drug transporter substrates. For the study of effect of transporter inhibitors, cocktail mixture (500 μM) of transporter inhibitors was added on both donor and acceptor sides.
(§3) During the transport study, the bathing fluids were maintained at 37° C. using circulating warm water. The pH of the fluids was maintained at pH 7.4 using 95% air-5% CO2 aeration. Samples were collected (200 μL) from receiver side every hour for 6 hours and the removed volume was replaced with fresh assay buffer pre-equilibrated to 37° C. Drug levels were analyzed using a LC-MS/MS assay. Permeation data were corrected for dilution of the receiver concentrations with sample volume replenishment.
(§4) Analyte concentrations in transport study samples were measured using LC-MS/MS method after 5-fold dilution with acetonitrile to reduce the salt concentrations. A cassette analysis method was developed for simultaneous analysis of Gly-Sar, valacylovir, and MPP Phenyl acetic acid was analyzed separately with a negative ionization method and a normal phase separation method. An API-3000 triple quadrupole mass spectrometry (Applied Biosystems, Foster City, Calif., USA) coupled with a PerkinElmer series-200 liquid chromatography (Perkin Elmer, Waltham, Mass., USA) system was used for analysis. Gly-Sar, valacylovir and MPP were separated on Supelco C-5 column (2.1×10 mm, 3 μm) using water containing 0.1% formic acid (A) and acetonitrile:methanol (50:50 v/v) containing 0.1% formic acid (B) as mobile phase. A linear gradient elution at a flow rate of 0.3 ml/min with a total run time of 9 min was employed. Phenyl acetic acid was separated in normal phase separation mode on Obelisc-N silica column (2.1×10 mm, 3 μM) using 5 mM ammonium formate at pH 3.5 (A) and acetonitrile (B) as mobile phase.

[1] = system: calf sclera-choroid-RPE (SCRPE); experiment: In vitro transport of substrate cassette across normoxic and hypoxic calf SCRPE; conditions: for apparent permeability (Papp) across hypoxic vs normoxic tissue (in words) / transport across hypoxic vs normoxic tissue (in words): calf SCRPE; for transport across hypoxic vs normoxic tissue (in words): cassette 100 μM
Description: as §1, §2, §3, §4

human cornea = experiment: In vitro transport of transporter substrate cassette across human cornea; conditions: for transport in presence of transporter inhibitor (in words): apical to basal, inhibitor cocktail 500 μM
Procedure: In vitro transport studies across human cornea and sclera-choroid-RPE (SCRPE) were carried out according to previously published method using the cassette dosing approach. Briefly, cassette of drug transporter substrate including Gly-Sar (PEPT), L-tryptophan (ATB^0+), MPP^+ (OCT), and phenyl acetic acid (MCT) at concentration of 100 μM in assay buffer was prepared. Briefly, the human eyes were washed with assay buffer and cleaned from muscle and conjunctiva tissues, and anterior and posterior parts were separated by giving circumferential cut behind the limbus. Small sclera part was left with cornea, which helps in mounting of cornea on Ussing chambers. Neural retina was separated from the choroid-RPE by filling the eye cup with assay buffer, and floating retina was collected. After separation of retina, eye cup was divided into two rectangular pieces (˜1.5×1.5 cm) of sclera-choroid-RPE. Isolated tissues were mounted on modified Ussing chambers (Navicyte, Sparks, Nev.) such that the episcleral side of SCRPE or epithelial side of cornea was facing the donor chamber and retinal side or endothelial side of cornea is facing the receiver chamber. To study the effect of directionality on transport, one set of Ussing chambers mounted so that sclera side facing the donor side and another set was mounted so that choroid-RPE facing the donor side. […] The chambers were filled with 1.5 ml of assay buffer with (donor side) or without (receiver side) the cocktail of drug transporter substrates. For study of effect of transporter inhibitors, cocktail mixture (500 μM) of transporter inhibitor was added on both donor and acceptor side.
(§5) During the transport study, the bathing fluids were maintained at 37° C. using a circulating warm water and pH 7.4 using 95% air-5% CO2 aeration. Samples were collected (200 μL) form receiver side every hour for 6 hr and the lost volume was compensated with fresh assay buffer pre-equilibrated at 37° C. The drug levels were analyzed using a LC-MS/MS assay. Permeation data were corrected for dilution of the receiver solution with sample volume replenishment.
Analytes concentrations in transport study samples were analyzed using LC-MS/MS method after 5-fold dilution with acetonitrile to reduce the salt concentrations. […] Phenyl acetic acid was analyzed separately in negative ionization method and normal phase separation method. […] Gly-Sar, L-tryptophan, and MPP^+ were analyzed in positive ionization mode with following multiple reaction monitoring (MRM) transitions: 147→90 (Gly-Sar); 205→188 (L-tryptophan); 170→128 (MPP^+). Phenyl acetic acid was analyzed in negative ionization mode with following multiple reaction monitoring (MRM) transitions: 135→91 (Phenyl acetic acid).

[2] = system: human sclera-choroid-RPE (SCRPE); experiment: In vitro transport of transporter substrate cassette across human sclera-choroid-RPE; conditions: human SCRPE; for sclera to retina transport in presence of transporter specific inhibitor (in words): inhibitor cocktail 500 μM; for sclera to retina transport compared with retina to sclera transport (in words): substrate cassette 100 μM
Procedure: In vitro transport studies across human cornea and sclera-choroid-RPE (SCRPE) were carried out according to previously published method using the cassette dosing approach. Briefly, cassette of drug transporter substrate including Gly-Sar (PEPT), L-tryptophan (ATB^0+), MPP^+ (OCT), and phenyl acetic acid (MCT) at concentration of 100 μM in assay buffer was prepared. Briefly, the human eyes were washed with assay buffer and cleaned from muscle and conjunctiva tissues, and anterior and posterior parts were separated by giving circumferential cut behind the limbus. Small sclera part was left with cornea, which helps in mounting of cornea on Ussing chambers. Neural retina was separated from the choroid-RPE by filling the eye cup with assay buffer, and floating retina was collected. After separation of retina, eye cup was divided into two rectangular pieces (˜1.5×1.5 cm) of sclera-choroid-RPE. Isolated tissues were mounted on modified Ussing chambers (Navicyte, Sparks, Nev.) such that the episcleral side of SCRPE or epithelial side of cornea was facing the donor chamber and retinal side or endothelial side of cornea is facing the receiver chamber. To study the effect of directionality on transport, one set of Ussing chambers mounted so that sclera side facing the donor side and another set was mounted so that choroid-RPE facing the donor side. The effect of directionality of transport across cornea was not evaluated. The chambers were filled with 1.5 ml of assay buffer with (donor side) or without (receiver side) the cocktail of drug transporter substrates. For study of effect of transporter inhibitors, cocktail mixture (500 μM) of transporter inhibitor was added on both donor and acceptor side.
as §5
Analytes concentrations in transport study samples were analyzed using LC-MS/MS method after 5-fold dilution with acetonitrile to reduce the salt concentrations. Cassette analysis method was developed for simultaneous analysis of Gly-Sar, L-tryptophan and MPP^+. Phenyl acetic acid was analyzed separately in negative ionization method and normal phase separation method. An API-3000 triple quadrupole mass spectrometry (Applied Biosystems, Foster City, Calif., USA) coupled with a PerkinElmer series-200 liquid chromatography (Perkin Elmer, Walthm, Mass., USA) system was used for analysis. Gly-Sar, L-tryptophan and MPP^+ were separated on Supelco C-5 column (2.1×10 mm, 3 μm) using water containing 0.1% formic acid (A) and acetonitrile:methanol (50:50 v/v) containing 0.1% formic acid (B) as mobile phase and a linear gradient elution at a flow rate of 0.3 ml/min with total run time of 9 min. Phenyl acetic acid was separated in normal phase separation mode using Obelisc-N silica column (2.1×10 mm, 3 μM) using 5 mM ammonium formate, pH 3.5 (A) and acetonitrile (B) as mobile phase in linear gradient mode at flow rate of 0.3 ml with total run time of 6 min. Gly-Sar, L-tryptophan, and MPP^+ were analyzed in positive ionization mode with following multiple reaction monitoring (MRM) transitions: 147→90 (Gly-Sar); 205→188 (L-tryptophan); 170→128 (MPP^+). Phenyl acetic acid was analyzed in negative ionization mode with following multiple reaction monitoring (MRM) transitions: 135→91 (Phenyl acetic acid).

In the case of `C[n+]1ccc(-c2ccccc2)cc1.[I-]` [MPP^+, MPP^+ iodide], the “apparent permeability (Papp) across hypoxic vs normoxic tissue (in words)” value (calf cornea) is reported as “significantly higher across normoxic cornea than hypoxic cornea”, the “transport across hypoxic vs normoxic tissue (in words)” value (calf cornea) is reported as “significantly higher across normoxic calf cornea than hypoxic calf cornea” and the “decrease in cumulative % transport across hypoxic tissue” value (calf cornea; hypoxic vs normoxic calf cornea) is reported as 49%. The “apparent permeability (Papp) across hypoxic vs normoxic tissue (in words)” value [1] was “significantly higher across normoxic SCRPE than hypoxic SCRPE”, the “transport across hypoxic vs normoxic tissue (in words)” value [1] was “significantly decreased in hypoxic calf SCRPE” and the “transport across hypoxic vs normoxic tissue (in words)” value ([1]; listed as MPP+) was “significantly higher across normoxic calf SCRPE than hypoxic calf SCRPE”. The “decrease in cumulative % transport across hypoxic tissue” value ([1]; hypoxic vs normoxic calf SCRPE) was 61%, the “transport lower in presence of OCT inhibitor metformin” value (human cornea; human cornea) was 2.6 fold and the “transport in presence of transporter inhibitor (in words)” value (human cornea; human cornea) was “significantly inhibited”. For the same compound, the “sclera to retina transport in presence of transporter specific inhibitor (in words)” value [2] was “significantly inhibited”, the “inhibition of sclera to retina transport in presence of specific inhibitors” value ([2]; inhibitor cocktail 500 μM (metformin for MPP+)) was 1.7 fold and the “sclera to retina transport compared with retina to sclera transport (in words)” value [2] was “significantly higher”.

For `O=C(O)Cc1ccccc1` [phenyl acetic acid], the “apparent permeability (Papp) across hypoxic vs normoxic tissue (in words)” value (calf cornea) was “significantly higher across hypoxic cornea than normoxic cornea”, the “transport across hypoxic vs normoxic tissue (in words)” value (calf cornea) was “significantly higher than normoxic cornea” and the “apparent permeability (Papp) across hypoxic vs normoxic tissue (in words)” value [1] was “increased by several fold in hypoxic condition”. For the same compound, the “transport across hypoxic vs normoxic tissue (in words)” value [1] was “increased by several fold in hypoxic condition”, the “transport across hypoxic vs normoxic tissue (in words)” value ([1]; listed as phenylacetic acid) was “significantly higher across hypoxic SCRPE than normoxic SCRPE” and the “apparent permeability (Papp) across hypoxic vs normoxic tissue (in words)” value ([1]; listed as phenylacetic acid) was “significantly higher across hypoxic SCRPE than normoxic SCRPE”. For the same compound, the “inward transport compared with outward transport (in words)” value (human cornea; cornea) was “significantly higher than outward transport”, the “transport in presence of transporter inhibitor (in words)” value (human cornea; human cornea) was “significantly inhibited” and the “sclera to retina transport in presence of transporter specific inhibitor (in words)” value [2] was “no significant effect of inhibitor”. The “sclera to retina transport compared with retina to sclera transport (in words)” value [2] was “retina to sclera transport was significantly higher than inward transport”.
